In ChEMBL document CHEMBL5523724, “Rational Molecular Editing: A New Paradigm in Drug Discovery” (J Med Chem, 2024):

What was measured:
[1] = molecular target: T1, 3-hydroxy-3-methylglutaryl-coenzyme A reductase (Homo sapiens, UniProt P04035); assay: Inhibition of HMG-CoA Reductase (unknown origin)
T1 sequence (P04035 whole entry): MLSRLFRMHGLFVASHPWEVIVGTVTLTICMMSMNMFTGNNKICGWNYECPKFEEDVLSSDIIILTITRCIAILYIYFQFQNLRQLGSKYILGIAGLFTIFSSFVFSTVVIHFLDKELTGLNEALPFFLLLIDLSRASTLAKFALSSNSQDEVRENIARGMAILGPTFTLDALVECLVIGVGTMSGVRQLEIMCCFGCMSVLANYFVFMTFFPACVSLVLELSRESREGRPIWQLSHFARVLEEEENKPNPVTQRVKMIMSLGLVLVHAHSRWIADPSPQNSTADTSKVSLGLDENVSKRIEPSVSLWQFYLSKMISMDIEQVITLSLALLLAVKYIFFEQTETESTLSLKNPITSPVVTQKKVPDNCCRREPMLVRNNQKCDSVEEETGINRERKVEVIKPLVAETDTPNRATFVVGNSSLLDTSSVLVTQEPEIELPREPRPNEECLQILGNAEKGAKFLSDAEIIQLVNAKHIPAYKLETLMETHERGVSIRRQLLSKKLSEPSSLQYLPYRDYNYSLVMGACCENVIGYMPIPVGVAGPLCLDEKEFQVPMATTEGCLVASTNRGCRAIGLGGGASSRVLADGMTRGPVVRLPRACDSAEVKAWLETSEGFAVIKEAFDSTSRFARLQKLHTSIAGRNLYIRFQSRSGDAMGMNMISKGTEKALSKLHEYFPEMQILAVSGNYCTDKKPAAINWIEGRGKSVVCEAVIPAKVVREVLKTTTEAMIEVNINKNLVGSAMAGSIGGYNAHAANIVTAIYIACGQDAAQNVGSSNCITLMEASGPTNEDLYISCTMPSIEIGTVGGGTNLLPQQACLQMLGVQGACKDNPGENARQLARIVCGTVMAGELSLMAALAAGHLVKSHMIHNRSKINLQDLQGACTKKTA

Ramos = assay: Antitumor activity against human Ramos cells; type: functional, cell-based

IC50 [1] [nM] | IC50 (Ramos) [nM] | Compound
230 |  | CC(C)c1ccc(-c2ccc(F)cc2)n1CC[C@@H]1C[C@@H](O)CC(=O)O1
 | 38000 | Cc1cccc(P(=O)(CNCc2ccccc2)c2cccc(C)c2)c1
 | 4200 | [2H]C([2H])(NCc1ccccc1)P(=O)(c1cccc(C)c1)c1cccc(C)c1
7 |  | CC(C)c1c(C(=O)Nc2ccccc2)c(-c2ccccc2)c(-c2ccc(F)cc2)n1CC[C@@H]1C[C@@H](O)CC(=O)O1 [ATORVASTATIN LACTONE]
